From patent US4748172A, “3-bicyclicpyridinium-methyl cephalosporins” (Eli Lilly and Company, priority 1987, dated 1988)
Values after ≈ are worked out from the molar mass of the structure shown.

Columns and labels:
Format in all cases: cell-based
Staph. aureus V41 = experiment: Agar dilution MIC; details: Staphylococcus aureus, strain V41
Staph. aureus X400 = experiment: Agar dilution MIC; details: Staphylococcus aureus
Staph. aureus S13E = experiment: microbe, parasite or virus in culture; details: Staphylococcus aureus
Staph. epi EPI1 = experiment: Agar dilution MIC; details: strain EPI1
Strep. D 9960 = experiment: Agar dilution MIC
Klebsiella X68 = experiment: Agar dilution MIC
Pseudomonas X239 = experiment: Agar dilution MIC; details: strain X239
From the text: (§1) The antibacterial activity of several representative compounds of the invention has been evaluated in standard in vitro agar dilution assays. The following Table presents typical minimum inhibitory concentrations (MIC's) in μg/ml for exemplary compounds when evaluated against typical Gram+and Gram-microorganism.
(§2) Agar Dilution MIC (μg/ml)

Pseudomonas X528 = experiment: Agar dilution MIC; details: strain X528
From the text: as §1, §2

CO/N=C(\C(=O)N[C@@H]1C(=O)N2C(C(=O)[O-])=C(C[n+]3cccc4nc(N)sc43)CS[C@H]12)c1csc(N)n1 [Example 15, syn-7-[2-(2-aminothiazol-4-yl)-2-methoxyiminoacetamido]-3-(2-aminothiazolo[5,4-b]pyridinium-4-ylmethyl)-3-cephem-4-carboxylate]
MIC (Staph. aureus V41): 2 mg/L (≈ 3.66 µM) | MIC (Staph. aureus X400): 32 mg/L (≈ 58.5 µM) | MIC (Staph. aureus S13E): 4 mg/L (≈ 7.32 µM) | MIC (Staph. epi EPI1): 2 mg/L (≈ 3.66 µM) | MIC (Strep. D 9960): 8 mg/L (≈ 14.6 µM) | MIC (Klebsiella X68): 4 mg/L (≈ 7.32 µM) | MIC (Pseudomonas X239): 2 mg/L (≈ 3.66 µM) | MIC (Pseudomonas X528): 1 mg/L (≈ 1.83 µM)
